For 40 molecules, chemical recovery results are on record in the supplement of paper PMC10702517.

This data set can be described thus: chemical recovery from spiked human plasma; higher = better extraction. Conditions: pooled human plasma.
The mark [1] stands for this setting: extraction method: PES+SPE (3 d PDMS equilibration then HLB SPE).
Where [2] appears, read: extraction method: SPE only (HLB 96-well).
[3] abbreviates: extraction method: solvent precipitation (ACN + hexane).
[4] abbreviates: extraction method: SPE only (HLB 96-well), PES comparison experiment.

Structures are written as SMILES. ± gives the standard deviation.

On to `CCOC(=O)C(C#N)=C(c1ccccc1)c1ccccc1` [Etocrylene], for which the chemical recovery is 35.4 ± 4.9% under setting [1], 36.7 ± 2.9% under setting [2] and 49.9 ± 9.2% under setting [3].

For the molecule `CCOc1ccc(C(C)(C)COCc2cccc(Oc3ccccc3)c2)cc1` [Etofenprox], the chemical recovery was 4.05 ± 1.4% under setting [2] and 5.02 ± 0.29% under setting [3].

Consider `C=CCc1ccc(O)c(OC)c1` [Eugenol], for which the chemical recovery runs as follows: under setting [1], 42.8 ± 4.4%; under setting [2], 44.8 ± 1.8%; under setting [3], 50.3 ± 6.1%.

As for `CSC1=N[C@@](C)(c2ccccc2)C(=O)N1Nc1ccccc1` [Fenamidone], the chemical recovery under setting [1] stood at 60.6 ± 12%, the chemical recovery under setting [2] stood at 57.8 ± 2.2% and the chemical recovery under setting [3] came out at 79.4 ± 2.9%.

For the molecule `CC1(C(=O)Nc2ccc(O)c(Cl)c2Cl)CCCCC1` [Fenhexamid], under setting [3], the chemical recovery came out at 66.2 ± 1.5%.

In the case of `CC(Oc1ccc(Oc2nc3ccc(Cl)cc3o2)cc1)C(=O)O` (stereo not given) [Fenoxaprop-P], the chemical recovery under setting [1] worked out at 42.2 ± 5% and the chemical recovery under setting [2] is 26.7 ± 2.6%.

On to `CC(Cc1ccc(C(C)(C)C(=O)O)cc1)CN1C[C@@H](C)O[C@@H](C)C1` (stereo not given in full) [Fenpropimorph-acid], for which the chemical recovery reads like this: under setting [1], 41.2 ± 4.4%; under setting [2], 42.9 ± 4.1%; under setting [3], 67.5 ± 3.3%.

Consider `COP(=S)(OC)Oc1ccc(SC)c(C)c1` [Fenthion], for which the chemical recovery was determined as 1.29 ± 0.38% under setting [1], 59.7 ± 2.1% under setting [2] and 47 ± 8.3% under setting [4].

For the molecule `CN(C)C(=O)Nc1ccccc1` [Fenuron], the chemical recovery runs as follows: under setting [1], 49.2 ± 5%; under setting [2], 46.9 ± 2.6%; under setting [4], 49.4 ± 5.9%; under setting [3], 74.6 ± 2.4%.

`N#CCNC(=O)c1cnccc1C(F)(F)F` [Flonicamid]: the chemical recovery worked out at 53.1 ± 3.7% under setting [1], 46.9 ± 1.9% under setting [2] and 73.8 ± 3.3% under setting [3].

With `Cc1cc(C(F)(C(F)(F)F)C(F)(F)F)ccc1NC(=O)c1cccc(I)c1C(=O)NC(C)(C)CS(C)(=O)=O` [Flubendiamide], the chemical recovery came to 25.7 ± 6.4% under setting [2] and 53.1 ± 4.4% under setting [3].

Consider `N#Cc1c[nH]cc1-c1cccc2c1OC(F)(F)O2` [Fludioxonil], for which the chemical recovery by setting is: under setting [1], 67.2 ± 4.7%; under setting [2], 40.1 ± 3.5%; under setting [3], 51.4 ± 2.9%.

`CC(=O)OCC(=O)[C@@]1(O)CC[C@H]2[C@@H]3CCC4=CC(=O)CC[C@]4(C)[C@@]3(F)[C@@H](O)C[C@@]21C` [Fludrocortisone-21-acetate]: under setting [4], the chemical recovery stood at 46.7 ± 4.8%.

For `O=C(O)c1ccccc1Nc1cccc(C(F)(F)F)c1` [Flufenamic-acid], the chemical recovery was 58 ± 5.7% under setting [1], 44.9 ± 11% under setting [2] and 51.1 ± 1.4% under setting [3].

For `O=C(NC(=O)c1c(F)cccc1F)Nc1ccc(Oc2ccc(C(F)(F)F)cc2Cl)cc1F` [Flufenoxuron], the chemical recovery under setting [2] stood at 25.7 ± 5.2% and the chemical recovery under setting [4] is 24 ± 6.8%.

For the molecule `C#CCN1C(=O)COc2cc(F)c(N3C(=O)C4=C(CCCC4)C3=O)cc21` [Flumioxazin], the chemical recovery is 47.2 ± 4.8% under setting [1], 40.9 ± 0.44% under setting [2], 38.5 ± 7.6% under setting [4] and 5.96 ± 5.2% under setting [3].

In turn, `CC1(C)O[C@@H]2C[C@H]3[C@@H]4C[C@H](F)C5=CC(=O)C=C[C@]5(C)[C@@]4(F)[C@@H](O)C[C@]3(C)[C@]2(C(=O)CO)O1` [Fluocinolone acetonide] registered a chemical recovery under setting [4] of 46.1 ± 5.2%.

As for `O=C(NCc1ncc(C(F)(F)F)cc1Cl)c1c(Cl)cccc1Cl` [Fluopicolide], the chemical recovery is 65.8 ± 11% under setting [1], 58.1 ± 3.7% under setting [2] and 79.1 ± 2.3% under setting [3].

On to `O=C(NCCc1ncc(C(F)(F)F)cc1Cl)c1ccccc1C(F)(F)F` [Fluopyram], for which the chemical recovery under setting [3] stood at 67.8 ± 2.1%.

Consider `c1ccc2c(c1)Cc1ccccc1-2` [Fluorene], for which the chemical recovery under setting [4] came out at 11 ± 2.6%.

Under setting [2], `CC(C)(C)c1ccc2oc(-c3ccc(-c4nc5cc(C(C)(C)C)ccc5o4)s3)nc2c1` [Fluorescent-Brightener-184] showed a chemical recovery of 0.938 ± 0.39%.

`OCCN1CCN(CCC=C2c3ccccc3Sc3ccc(C(F)(F)F)cc32)CC1` [Flupentixol]: the chemical recovery under setting [3] was determined as 51.7 ± 2.5%.

`O=C1C=C(N(Cc2ccc(Cl)nc2)CC(F)F)CO1` [Flupyradifurone]: the chemical recovery reads like this: under setting [1], 43.9 ± 3.3%; under setting [2], 39.3 ± 3.1%; under setting [3], 76.9 ± 2.6%.

Consider `CC(C)Oc1cccc(NC(=O)c2ccccc2C(F)(F)F)c1` [Flutolanil], for which the chemical recovery runs as follows: under setting [1], 53.5 ± 4.5%; under setting [2], 38.9 ± 0.5%; under setting [3], 60.8 ± 4.7%.

Take `OC(Cn1cncn1)(c1ccc(F)cc1)c1ccccc1F` (stereo not given) [Flutriafol]: the chemical recovery under setting [1] came out at 43.2 ± 5.4%, the chemical recovery under setting [2] was 41.9 ± 3.3% and the chemical recovery under setting [3] was found to be 78.9 ± 4%.

`Cn1cc(C(=O)Nc2ccccc2-c2cc(F)c(F)c(F)c2)c(C(F)F)n1` [Fluxapyroxad]: the chemical recovery reads like this: under setting [1], 69.6 ± 10%; under setting [2], 65 ± 3%; under setting [3], 79.9 ± 1.2%.

`COc1cc(OC)nc(NC(=O)NS(=O)(=O)c2cc(NC=O)ccc2C(=O)N(C)C)n1` [Foramsulfuron]: the chemical recovery under setting [3] turned out to be 69 ± 4.2%.

Regarding `CNC(=O)Oc1cccc(/N=C/N(C)C)c1` [Formetanate], the chemical recovery reads like this: under setting [2], 8.98 ± 3.5%; under setting [3], 2.27 ± 3.9%.

Consider `CC1COCc2cc3c(cc21)C(C)(C)C(C)C3(C)C` (stereo not given) [Galaxolide], for which the chemical recovery is 39.1 ± 9.8% under setting [1], 13.7 ± 2.7% under setting [2] and 99.6 ± 18% under setting [3].

Take `CC1(C)[C@@H](O[C@H]2O[C@H](C(=O)O)[C@@H](O)[C@H](O)[C@H]2O[C@@H]2O[C@H](C(=O)O)[C@@H](O)[C@H](O)[C@H]2O)CC[C@]2(C)[C@H]3C(=O)C=C4[C@@H]5C[C@@](C)(C(=O)O)CC[C@]5(C)CC[C@@]4(C)[C@]3(C)CC[C@@H]12` [Glycyrrhizin]: the chemical recovery is, setting by setting: under setting [1], 14.5 ± 4.5%; under setting [2], 16.6 ± 2.5%; under setting [3], 0.719 ± 0.66%.

`N=C(N)NC(=O)Cc1c(Cl)cccc1Cl` [Guanfacine]: the chemical recovery turned out to be 43.1 ± 2.6% under setting [1], 44 ± 3.3% under setting [2] and 57.9 ± 5% under setting [3].

Turning to `O=C(O)C(F)(OC(F)(F)C(F)(F)C(F)(F)F)C(F)(F)F` (stereo not given) [HFPO-DA], the chemical recovery came out at 30.7 ± 3% under setting [2] and 67.4 ± 3.1% under setting [3].

Turning to `CC(Oc1ccc(Oc2ncc(C(F)(F)F)cc2Cl)cc1)C(=O)O` (stereo not given) [Haloxyfop-P], the chemical recovery runs as follows: under setting [1], 41 ± 2.6%; under setting [2], 33.1 ± 3.1%; under setting [3], 68.1 ± 2.8%.

As to `Cc1nccc2c1[nH]c1ccccc12` [Harman], the chemical recovery stood at 36.2 ± 5.5% under setting [1], 34.9 ± 2.5% under setting [2], 48.2 ± 6% under setting [4] and 74.4 ± 3.2% under setting [3].

On to `COc1ccc2c(c1)[nH]c1c(C)nccc12` [Harmine], for which the chemical recovery under setting [1] was 37.8 ± 5.3%, the chemical recovery under setting [2] came out at 37.3 ± 2.9% and the chemical recovery under setting [4] was determined as 48.6 ± 4.2%.

Regarding `ClC1=C(Cl)C2(Cl)C3C4OC4C(Cl)C3C1(Cl)C2(Cl)Cl` (stereo not given) [Heptachlor epoxide], the chemical recovery reads like this: under setting [2], 1.06 ± 0.28%; under setting [3], 18.7 ± 2.8%.

Under setting [2], `CCCCCCCCCCCCCCCC[N+](C)(C)C` [Hexadecyltrimethylammonium] registered a chemical recovery of 50.1 ± 19%.

In the case of `CCCCCCN` [Hexylamine], the chemical recovery was 3.2 ± 1.1% under setting [1], 8.65 ± 5.7% under setting [2] and 19.7 ± 6% under setting [3].

For `CC1CC(OC(=O)c2ccccc2O)CC(C)(C)C1` (stereo not given) [Homosalate], the chemical recovery reads like this: under setting [2], 0.169 ± 0.033%; under setting [3], 41 ± 2.4%.

For the molecule `c1ccc(NNc2ccccc2)cc1` [Hydrazobenzene], under setting [2], the chemical recovery stood at 2.13 ± 0.29%.
